Structures are written as SMILES.

Assay [1] relates to Rattus norvegicus. The assay is described as follows: Concentration of compound 1 in brain of Sprague-Dawley rats upon 10 mg/kg iv dose after 3 hours. Type of assay: functional, organism-based. Set-up: dose 10 mg/kg.
Assay [2] relates to Rattus norvegicus. Kind of assay: Concentration of compound 1 in plasma of Sprague-Dawley rats upon 10 mg/kg iv dose after 3 hours. It is filed as functional, organism-based. On the set-up: dose 10 mg/kg.
Assay [3] relates to Rattus norvegicus. Kind of assay: Plasma concentration of compound 1 in Sprague-Dawley rats upon 2 mg/kg iv dose of prodrug after 30 minutes. It is filed as functional, organism-based. Set-up: dose 2 mg/kg.
Assay [4] relates to Rattus norvegicus. Kind of assay: Ratio of concentration of compound 16 in brain to that of plasma of Sprague-Dawley rats upon 10 mg/kg bolus+ 5 mg/Kg/h infusion of compound after 24 hours. Type of assay: functional.
For assay [5], the system named is Rattus norvegicus. Kind of assay: Concentration of compound 16 in plasma of Sprague-Dawley rats upon 5 mg/kg bolus+ 3 mg/Kg/h infusion of compound after 6 hours. Type of assay: functional, organism-based.
The test system of assay [6] is Rattus norvegicus. The assay is described as follows: Concentration of compound 16 in plasma of Sprague-Dawley rats upon 10 mg/kg bolus+ 5 mg/Kg/h infusion of compound after 6 hours. Type of assay: functional, organism-based.
The subject of assay [7] is Rattus norvegicus. Kind of assay: Concentration of compound 16 in brain of Sprague-Dawley rats upon 10 mg/kg bolus+ 5 mg/Kg/h infusion of compound after 24 hours. Type of assay: functional, organism-based.
For assay [8], the system named is Rattus norvegicus. Kind of assay: Ratio of concentration of compound 16 in brain to that of plasma of Sprague-Dawley rats upon 5 mg/kg bolus+ 3 mg/Kg/h infusion of compound after 24 hours. It is filed as functional.
The test system of assay [9] is Rattus norvegicus. The assay is described as follows: Concentration of compound 16 in plasma of Sprague-Dawley rats upon 5 mg/kg bolus+ 3 mg/Kg/h infusion of compound after 24 hours. It is filed as functional, organism-based.
Assay [10] concerns Rattus norvegicus. Kind of assay: Concentration of compound 16 in brain of Sprague-Dawley rats upon 5 mg/kg bolus+ 3 mg/Kg/h infusion of compound after 24 hours. It is filed as functional, organism-based.
Assay [11] concerns Rattus norvegicus. Kind of assay: Concentration of compound 16 in plasma of Sprague-Dawley rats upon 10 mg/kg bolus+ 5 mg/Kg/h infusion of compound after 24 hours. It is filed as functional, organism-based.
Assay [12] concerns the target Prostaglandin G/H synthase 1 (Homo sapiens, UniProt P23219). Kind of assay: Inhibitory concentration against prostaglandin G/H synthase 1 in human whole blood. Type of assay: tissue-based.
The target of assay [13] is T1, Prostaglandin G/H synthase 2 (Homo sapiens, UniProt P35354).
T1 sequence (P35354 whole entry): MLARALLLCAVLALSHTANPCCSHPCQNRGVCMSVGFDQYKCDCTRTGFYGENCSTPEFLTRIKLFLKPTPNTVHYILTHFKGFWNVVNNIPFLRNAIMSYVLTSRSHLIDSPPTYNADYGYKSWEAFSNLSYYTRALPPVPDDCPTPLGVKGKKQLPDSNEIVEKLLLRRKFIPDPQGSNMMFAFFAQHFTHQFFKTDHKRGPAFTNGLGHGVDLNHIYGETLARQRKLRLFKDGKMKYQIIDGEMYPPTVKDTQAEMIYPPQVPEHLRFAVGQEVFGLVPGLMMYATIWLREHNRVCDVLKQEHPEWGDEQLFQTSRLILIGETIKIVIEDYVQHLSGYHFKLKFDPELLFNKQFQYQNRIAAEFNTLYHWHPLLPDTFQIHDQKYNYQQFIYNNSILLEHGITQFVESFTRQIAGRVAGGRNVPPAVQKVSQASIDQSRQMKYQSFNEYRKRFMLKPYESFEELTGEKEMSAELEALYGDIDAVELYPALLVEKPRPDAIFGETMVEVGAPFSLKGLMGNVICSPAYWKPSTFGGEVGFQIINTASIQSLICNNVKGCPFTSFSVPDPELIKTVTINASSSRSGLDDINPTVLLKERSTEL
The assay is described as follows: Inhibitory concentration against prostaglandin G/H synthase 2 in human whole blood.

Sequence of Prostaglandin G/H synthase 1 (P23219 whole entry): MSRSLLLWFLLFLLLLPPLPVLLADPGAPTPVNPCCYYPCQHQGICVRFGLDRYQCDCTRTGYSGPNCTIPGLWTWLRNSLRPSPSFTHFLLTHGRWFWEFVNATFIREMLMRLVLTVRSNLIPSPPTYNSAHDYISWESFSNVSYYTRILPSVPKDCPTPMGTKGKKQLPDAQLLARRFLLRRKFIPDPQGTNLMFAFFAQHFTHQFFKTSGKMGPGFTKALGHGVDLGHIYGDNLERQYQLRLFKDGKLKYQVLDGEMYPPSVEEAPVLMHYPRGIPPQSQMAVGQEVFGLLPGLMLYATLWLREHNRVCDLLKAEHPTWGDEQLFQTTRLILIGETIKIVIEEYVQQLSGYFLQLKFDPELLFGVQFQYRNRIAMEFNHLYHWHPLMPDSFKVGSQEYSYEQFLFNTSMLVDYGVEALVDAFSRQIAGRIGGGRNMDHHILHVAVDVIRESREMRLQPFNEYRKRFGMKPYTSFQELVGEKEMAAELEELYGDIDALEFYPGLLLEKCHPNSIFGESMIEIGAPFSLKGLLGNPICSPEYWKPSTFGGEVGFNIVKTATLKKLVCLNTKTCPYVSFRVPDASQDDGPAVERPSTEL

In the case of `CC(=O)OC/C(=C(\C(=O)OCC[N+](C)(C)C)c1ccc(F)c(F)c1)c1ccc(S(C)(=O)=O)cc1`, the Concentration in assay [1] is 0.7 µM; in [2] it was 1.4 µM; in assay [3], 0.9 µM.
With `CC(=O)OC/C(=C(\C(=O)OCC[N+](C)(C)C)c1cccc(F)c1)c1ccc(S(C)(=O)=O)cc1.[Br-]`, the Ratio in [4] is listed as 55%; in assay [8] it was 59%. Also, the Concentration in assay [5] is 6 µM; in assay [6], 16 µM; in assay [7] it was 11 µM; in assay [9], 9.2 µM; in assay [10], 5.5 µM; in assay [11] it was 20 µM.
In general, IC50 refers to the concentration at which inhibition is half-maximal. In the case of `CS(=O)(=O)c1ccc(C2=C(c3cccc(F)c3)C(=O)OC2)cc1`, the IC50 in assay [12] amounted to 65 µM; in [13], 1.3 µM.
Regarding `CCOC(=O)[C@H](N)COC(=O)/C(=C(\COC(C)=O)c1ccc(S(C)(=O)=O)cc1)c1ccc(F)c(F)c1`, the Concentration in [3] stood at 1.4 µM.
Turning to `CCOC(=O)/C(=C(\COC(=O)[C@@H](N)CCCCN)c1ccc(S(C)(=O)=O)cc1)c1ccc(F)c(F)c1`, the Concentration in assay [3] stood at 0.4 µM.

For the origin of these results see ChEMBL document CHEMBL1139640, “Water soluble prodrug of a COX-2 selective inhibitor suitable for intravenous administration in models of cerebral ischemia” (Bioorg Med Chem Lett, 2005).
